Experimental data from patent publication US20070123491A1, “Podophyllotoxin derivatives as igf-1r inhibitors” (BIOVITRUM AB, priority 2003, published 2007).

Assays:
insulin receptor (IR) = molecular target: T1, insulin receptor (IR) (Homo sapiens, UniProt P06213); experiment: Tyrosine phosphorylation of IR in intact FM55 melanoma cells; format: cell-based; details: Experiment 3, 0.7 μM, 1 h, control = 100%
T1 construct: endogenous in cells; host or cells: FM55 human melanoma cells
Protocol: (§1) Cells were cultured to subconfluency in 6-cm plates, and then fresh medium containing 10% FBS and the desired compounds were added for 1 h. The cells were then lyzed and subjected to immunoprecipitation using specific antibodies. Immunoprecipitates were resolved by sodium dodecyl sulphate polyacrylamide gel electrophoresis (SDS-PAGE) and transferred to nitro-cellulose membranes and incubated with anti-phosphotyrosine antibody. Antibodies to actin (in cell extract) or IGF-1R beta subunit were used as loading controls. After detection the films were scanned for quantification.
(§2) The isolated cells were then lyzed in 10 ml ice-cold PBSTDS containing protease inhibitors (Carlberg, M., et al., J Biol Chem 271:17453-17462, 1996). 50 μl protein A or G agarose was added in 1 ml sample and incubated for 15 min at 4° C. on an orbital shaker. […] The protein content was determined by a dye-binding assay with a reagent purchased from Bio-Rad. […]
(§3) Following SDS-PAGE the proteins were transferred overnight to nitro-cellulose membranes (Hybond, Amersham, UK) and then blocked for 1 h at room temperature in a solution of 4% skimmed milk powder and 0.02% Tween 20 in PBS, pH 7.5. […] After another 3 washes the membranes were incubated with Streptavidin-labelled horseradish peroxidase for 30 min and then detected using Amersham ECL system (Amersham, UK). […]

[1] = molecular target: T2, epidermal growth factor receptor (EGFR) (Homo sapiens, UniProt P00533); experiment: Tyrosine phosphorylation of EGFR in intact FM55 melanoma cells; format: cell-based; details: Experiment 3, 0.7 μM, 1 h, control = 100%
T2 construct: endogenous in cells; host or cells: FM55 human melanoma cells
Protocol: as §1, §2, §3

[2] = tested on: platelet-derived growth factor receptor (PDGFR); experiment: Tyrosine phosphorylation of PDGFR in intact FM55 melanoma cells; format: cell-based, human; details: Experiment 3, 0.7 μM, 1 h, control = 100%
Protocol: as §1, §2, §3

[3] = tested on: insulin substrate-1 (IRS-1); experiment: Tyrosine phosphorylation of IRS-1 in intact FM55 melanoma cells; format: cell-based, human; details: Experiment 3, 0.7 μM, 1 h, control = 100%
Protocol: as §1, §2, §3

[4] = molecular target: epidermal growth factor receptor (Homo sapiens, UniProt P00533); experiment: In vitro tyrosine kinase assay: EGFR substrate phosphorylation; format: biochemical; details: cell-free; data not shown
epidermal growth factor receptor, sequence (P00533 25-1210, species assumed): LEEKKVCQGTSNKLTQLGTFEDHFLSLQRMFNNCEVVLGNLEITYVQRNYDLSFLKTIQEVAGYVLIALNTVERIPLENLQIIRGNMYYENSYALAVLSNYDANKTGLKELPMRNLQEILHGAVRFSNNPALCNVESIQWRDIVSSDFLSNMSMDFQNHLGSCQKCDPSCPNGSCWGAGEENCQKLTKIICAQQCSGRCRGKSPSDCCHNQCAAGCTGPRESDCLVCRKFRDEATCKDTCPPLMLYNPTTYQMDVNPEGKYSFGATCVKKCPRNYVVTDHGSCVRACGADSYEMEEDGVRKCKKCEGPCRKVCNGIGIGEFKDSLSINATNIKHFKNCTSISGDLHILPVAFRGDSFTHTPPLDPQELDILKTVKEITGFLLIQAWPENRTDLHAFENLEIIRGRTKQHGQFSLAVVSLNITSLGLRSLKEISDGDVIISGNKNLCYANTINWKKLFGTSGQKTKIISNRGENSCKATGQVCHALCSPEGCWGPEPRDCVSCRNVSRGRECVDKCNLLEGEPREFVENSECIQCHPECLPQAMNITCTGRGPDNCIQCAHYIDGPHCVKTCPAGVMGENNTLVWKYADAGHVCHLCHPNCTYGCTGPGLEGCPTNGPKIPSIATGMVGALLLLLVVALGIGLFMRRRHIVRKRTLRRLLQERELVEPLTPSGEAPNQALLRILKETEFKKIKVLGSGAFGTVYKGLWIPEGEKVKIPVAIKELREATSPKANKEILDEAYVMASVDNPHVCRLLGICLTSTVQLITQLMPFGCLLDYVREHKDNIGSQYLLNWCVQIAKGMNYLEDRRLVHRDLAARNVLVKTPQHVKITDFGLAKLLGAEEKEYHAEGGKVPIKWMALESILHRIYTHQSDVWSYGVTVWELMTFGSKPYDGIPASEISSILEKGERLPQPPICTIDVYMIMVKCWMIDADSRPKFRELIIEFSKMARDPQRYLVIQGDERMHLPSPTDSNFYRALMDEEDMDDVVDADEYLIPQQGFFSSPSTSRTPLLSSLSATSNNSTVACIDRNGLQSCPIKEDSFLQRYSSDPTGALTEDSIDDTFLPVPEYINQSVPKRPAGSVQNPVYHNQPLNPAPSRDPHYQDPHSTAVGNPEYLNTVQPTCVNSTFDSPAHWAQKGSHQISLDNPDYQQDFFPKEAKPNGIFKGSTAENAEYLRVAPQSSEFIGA

[5] = molecular target: T3, insulin receptor (IR from HepG2) (Homo sapiens, UniProt P06213); experiment: In vitro tyrosine kinase assay: insulin receptor substrate phosphorylation; format: biochemical; details: cell-free; data not shown
T3 construct: Immunoprecipitated IR from HepG2; endogenous in cells; host or cells: HepG2
T3 sequence (P06213 28-1382): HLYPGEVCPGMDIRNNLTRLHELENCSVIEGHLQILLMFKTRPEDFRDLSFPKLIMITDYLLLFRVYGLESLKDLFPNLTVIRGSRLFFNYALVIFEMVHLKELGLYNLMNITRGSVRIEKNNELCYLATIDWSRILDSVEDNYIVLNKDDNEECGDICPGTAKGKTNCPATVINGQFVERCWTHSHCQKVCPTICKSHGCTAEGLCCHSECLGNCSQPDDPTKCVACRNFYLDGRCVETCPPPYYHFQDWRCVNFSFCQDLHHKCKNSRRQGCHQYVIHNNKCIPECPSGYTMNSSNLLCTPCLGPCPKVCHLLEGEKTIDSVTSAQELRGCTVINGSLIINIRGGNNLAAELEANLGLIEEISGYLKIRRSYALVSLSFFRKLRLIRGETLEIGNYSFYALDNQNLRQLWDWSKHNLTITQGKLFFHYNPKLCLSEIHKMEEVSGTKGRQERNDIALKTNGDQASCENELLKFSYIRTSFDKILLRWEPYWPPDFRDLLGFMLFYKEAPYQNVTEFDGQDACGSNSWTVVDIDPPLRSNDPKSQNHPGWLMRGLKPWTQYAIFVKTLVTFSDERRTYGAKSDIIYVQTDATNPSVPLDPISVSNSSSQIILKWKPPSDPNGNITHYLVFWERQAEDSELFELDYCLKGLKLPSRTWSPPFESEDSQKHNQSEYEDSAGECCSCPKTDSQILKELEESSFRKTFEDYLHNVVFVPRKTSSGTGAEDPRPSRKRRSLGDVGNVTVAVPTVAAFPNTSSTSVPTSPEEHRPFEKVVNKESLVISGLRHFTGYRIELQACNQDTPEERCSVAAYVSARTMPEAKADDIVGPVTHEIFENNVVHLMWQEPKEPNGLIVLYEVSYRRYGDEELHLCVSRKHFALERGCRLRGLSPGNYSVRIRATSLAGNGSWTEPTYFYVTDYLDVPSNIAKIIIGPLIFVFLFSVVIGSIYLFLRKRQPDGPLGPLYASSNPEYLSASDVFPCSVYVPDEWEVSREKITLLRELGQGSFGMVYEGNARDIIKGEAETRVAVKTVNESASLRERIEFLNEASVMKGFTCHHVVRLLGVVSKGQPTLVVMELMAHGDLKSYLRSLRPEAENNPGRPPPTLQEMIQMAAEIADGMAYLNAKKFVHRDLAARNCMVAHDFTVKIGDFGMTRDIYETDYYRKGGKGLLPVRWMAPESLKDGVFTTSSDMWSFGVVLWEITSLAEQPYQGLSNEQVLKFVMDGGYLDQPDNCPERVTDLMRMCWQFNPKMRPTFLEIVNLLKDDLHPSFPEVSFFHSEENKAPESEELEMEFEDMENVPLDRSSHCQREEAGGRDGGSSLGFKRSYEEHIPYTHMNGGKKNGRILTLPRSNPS
Protocol: (§4) IGF-1R-catalyzed substrate phosphorylation of polyTyrGlu (pTG) was performed essentially as previously described [Parrizas M., et al., see above, and Blum G., et al., see above]. Immunoprecipitated IR from HepG2, IGF-1R from P6 cell extract and immunodepleted supernatant to assay non-IGF-1R tyrosine kinases. The phosphorylated polymer substrate was probed with a purified phosphotyrosine specific monoclonal antibody conjugated to horseradish peroxidase (HARP). Color was developed with HRP chromogenic substrate o-phenylenediamine dihydrochloride (OPD). The color was quantitated by spectrophotometry (BLISA reader) and reflects the relative amount of tyrosine kinase. The precipitate was immunoblotted with antibodies to IGF-1R and IR to verify the presence of the receptor. Serial dilutions were used to assay the optimal conditions with respect to the amount of IGF-1R and IR. The signal was linear for 30 minutes and was a function of IGF-1R concentration up to 75 ng/well. Briefly, 96 well plates (Immunolon, Nunc) were coated overnight at 4° C. with a mouse monoclonal antibody (LabVision) against the beta-subunit of IGF-1R at a concentration of 1 μg/ml. […]
(§5) We isolated the receptor and determined the effects of 4,5-demethylene-deoxypodophyllotoxin on IGF-1R catalyzed substrate tyrosine phosphorylation and IGF-1R autophosphorylation in-vitro. […]

IGF-1R [6] = molecular target: T4, IGF-1R (Homo sapiens, UniProt P08069); experiment: IGF-1R tyrosine autophosphorylation, sandwich ELISA; format: biochemical; details: cell-free; stronger response by podophyllotoxin
Protocol: IGF-1R tyrosine autophosphorylation was analysed by a sandwich ELISA assay. Briefly, 96-well plates (Immunolon, Nunc) were coated overnight at 4° C. with 1 μg/well of the monoclonal antibody Ab-5 (LabVision) to the IGF-1R beta subunit. The plates were blocked with 1% BSA in PBS Tween for 1 h, then 80 µg/well of total protein lysate from the P6 cell line was added. As a negative control was used total protein lysate from R-cell line. The investigated compounds were added in tyrosine kinase buffer without ATP at room temperature for 30 min, prior to kinase activation with ATP. Kinase assay was performed using the Sigma kit.
We isolated the receptor and determined the effects of 4,5-demethylene-deoxypodophyllotoxin on IGF-1R catalyzed substrate tyrosine phosphorylation and IGF-1R autophosphorylation in-vitro. […] A stronger response was obtained by podophyllotoxin.
Target sequence in this assay (P08069 31-1367): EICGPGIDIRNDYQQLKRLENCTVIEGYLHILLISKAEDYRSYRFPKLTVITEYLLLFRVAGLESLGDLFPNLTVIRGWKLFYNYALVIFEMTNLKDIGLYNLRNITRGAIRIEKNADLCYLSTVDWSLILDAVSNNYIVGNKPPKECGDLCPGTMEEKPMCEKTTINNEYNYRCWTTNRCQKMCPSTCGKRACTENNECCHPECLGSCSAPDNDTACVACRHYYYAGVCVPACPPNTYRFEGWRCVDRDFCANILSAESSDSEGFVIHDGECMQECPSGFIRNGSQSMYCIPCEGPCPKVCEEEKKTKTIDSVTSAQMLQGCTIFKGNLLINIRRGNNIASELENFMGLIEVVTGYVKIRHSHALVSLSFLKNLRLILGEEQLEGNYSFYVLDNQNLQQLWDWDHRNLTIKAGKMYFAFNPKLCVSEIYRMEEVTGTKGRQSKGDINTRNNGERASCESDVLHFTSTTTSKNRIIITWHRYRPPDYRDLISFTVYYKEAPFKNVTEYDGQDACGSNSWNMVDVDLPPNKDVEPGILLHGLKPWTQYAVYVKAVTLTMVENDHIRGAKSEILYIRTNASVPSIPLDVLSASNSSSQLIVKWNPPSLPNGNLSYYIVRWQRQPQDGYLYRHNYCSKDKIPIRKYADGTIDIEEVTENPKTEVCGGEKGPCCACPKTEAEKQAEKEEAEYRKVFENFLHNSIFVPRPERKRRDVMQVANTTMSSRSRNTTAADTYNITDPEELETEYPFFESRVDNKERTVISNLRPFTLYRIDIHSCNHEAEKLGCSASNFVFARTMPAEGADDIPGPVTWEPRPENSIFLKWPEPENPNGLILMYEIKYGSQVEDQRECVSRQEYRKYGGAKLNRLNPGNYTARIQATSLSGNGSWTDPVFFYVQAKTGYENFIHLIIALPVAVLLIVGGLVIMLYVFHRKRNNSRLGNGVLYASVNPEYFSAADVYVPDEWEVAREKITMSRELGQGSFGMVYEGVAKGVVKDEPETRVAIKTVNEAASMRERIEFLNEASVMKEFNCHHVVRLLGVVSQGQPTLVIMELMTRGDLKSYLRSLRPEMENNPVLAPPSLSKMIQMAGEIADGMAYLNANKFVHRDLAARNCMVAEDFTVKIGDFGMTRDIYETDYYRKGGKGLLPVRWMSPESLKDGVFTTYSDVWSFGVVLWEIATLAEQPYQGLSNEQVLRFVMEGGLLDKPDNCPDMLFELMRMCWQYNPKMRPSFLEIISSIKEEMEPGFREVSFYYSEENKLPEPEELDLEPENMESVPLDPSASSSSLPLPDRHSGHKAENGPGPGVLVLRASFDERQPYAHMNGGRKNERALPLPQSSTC

IGF-1R [7] = molecular target: T4, IGF-1R; experiment: Tyrosine phosphorylation of IGF-1R in intact FM55 melanoma cells (immunoprecipitation, Western blot); format: cell-based; design: endogenous in cells; host or cells: FM55 human melanoma cells; details: 0.7 μM, 1 h; for Level of IGF-1R phosphorylation in intact cells (% OD): Experiment 1, FM55 melanoma cells, control OD = 100%; for Level of phosphorylation in intact cells (% OD), substrate IGF-1R: Experiment 3, FM55 cells, control = 100%
Protocol: as §1
Target sequence in this assay (P08069 31-1367): as above
The isolated cells were then lyzed in 10 ml ice-cold PBSTDS containing protease inhibitors (Carlberg, M., et al., J Biol Chem 271:17453-17462, 1996). 50 μl protein A or G agarose was added in 1 ml sample and incubated for 15 min at 4° C. on an orbital shaker. After centrifugation for 10 min at 10,000 r/min at 4° C. the supernatant was saved. The protein content was determined by a dye-binding assay with a reagent purchased from Bio-Rad. Bovine serum albumin was used as a standard. 15 μl Protein G Plus agarose and 5 μl anti-IGF-1R were added. After a 3 h incubation at 4° C. on an orbital shaker the precipitate was collected by pulse centrifugation in a micro centrifuge at 14,000×g for 10 s. The supernatant was discarded and the pellet was washed 3 times with PBSTDS.
Protein samples were solved in a 2×-sample buffer containing Laemmli buffer and 0.5% […] and boiled for 5 min at 96° C. Samples were separated by SDS-PAGE with a 4% stacking gel and 7.5% separation gel. Molecular weight markers (Bio Rad, Sweden) were run simultaneously in all experiments.
Following SDS-PAGE the proteins were transferred overnight to nitro-cellulose membranes (Hybond, Amersham, UK) and then blocked for 1 h at room temperature in a solution of 4% skimmed milk powder and 0.02% Tween 20 in PBS, pH 7.5. Incubations with the primary antibodies were performed for 1 h at room temperature, followed by 3 washes with PBS with Tween and incubation with the second antibody for 1 h room temperature. After another 3 washes the membranes were incubated with Streptavidin-labelled horseradish peroxidase for 30 min and then detected using Amersham ECL system (Amersham, UK). The films were scanned by Fluor-S (BioRad).
Melanoma cells (line FM55) were seeded in 6-cm dishes, at a concentration of 10,000 cells/cm2 in Minimal Essential Medium supplemented with 10% fetal calf serum (FCS). […] Phosphorylation of IGF-1R was detected by an anti-phosphotyrosine antibody using Western blotting. […] The intensities are quantified by a scanner, which measures the optical density (OD) of the signals. […]

[8] = tested on: fibroblast growth factor receptor (FGFR); experiment: Tyrosine phosphorylation of FGFR in intact FM55 melanoma cells; format: cell-based, human; details: Experiment 3, 0.7 μM, 1 h, control = 100%
Protocol: as §1, §2, §3

[9] = molecular target: T5, IGF-1R from P6 cell extract (Homo sapiens, UniProt P08069); experiment: In vitro tyrosine kinase assay: IGF-1R-catalyzed pTG substrate phosphorylation; format: biochemical; details: cell-free
T5 construct: expressed in transfected cells; host or cells: P6 cell line (embryonic mouse fibroblasts)
T5 sequence (P08069 31-1367): as above
Protocol: as §4, §5

non-IGF-1R kinases = experiment: In vitro tyrosine kinase assay: non-IGF-1R kinases (IGF-1R immunodepleted supernatant); format: biochemical; details: cell-free; kinases obtained by immunodepletion of IGF-1R; data not shown
Protocol: as §4, §5

IGF-1R [10] = molecular target: T4, IGF-1R; experiment: Effect on IGF-1R (method not given)
Target sequence in this assay (P08069 31-1367, species assumed): as the sequence (P08069 31-1367) above

insulin receptor kinase = insulin receptor kinase (Homo sapiens, UniProt P06213); details: Blum et al., Biochemistry 2000; cited from earlier work
insulin receptor kinase, sequence (P06213 28-1382): as the sequence (P06213 28-1382) above

isolated IGF-1R kinase = isolated IGF-1R kinase (Homo sapiens, UniProt P08069); details: Blum et al., Biochemistry 2000; cited from earlier work
isolated IGF-1R kinase, sequence (P08069 31-1367): as the sequence (P08069 31-1367) above

T1 sequence (P06213 28-1382): as the sequence (P06213 28-1382) above

Row | SMILES | Level of phosphorylation in intact cells (% OD), substrate IR (insulin receptor (IR)) [% OD] | Level of phosphorylation in intact cells (% OD), substrate EGFR [1] [% OD] | Level of phosphorylation in intact cells (% OD), substrate PDGFR [2] [% OD] | Level of phosphorylation in intact cells (% OD), substrate IRS-1 [3] [% OD] | Interference with substrate phosphorylation of epidermal growth factor receptor tyrosine kinase [4] | Interference with substrate phosphorylation of insulin receptor tyrosine kinase [5] | Inhibition of autophosphorylation of IGF-1R in vitro (IGF-1R [6]) | Level of IGF-1R phosphorylation in intact cells (% OD) (IGF-1R [7]) | Level of phosphorylation in intact cells (% OD), substrate IGF-1R (IGF-1R [7]) [% OD] | Level of phosphorylation in intact cells (% OD), substrate FGFR [8] [% OD] | Decrease of pTG substrate phosphorylation by the IGF-1 receptor ([9]; 0.5 μM) | Interference with substrate phosphorylation of other non-IGF-1R kinases (non-IGF-1R kinases) | Effect on IGF-1R substrate phosphorylation [9] | Effect on IGF-1R (IGF-1R [10]) | Effect on insulin receptor kinase (insulin receptor kinase) | IC50 (isolated IGF-1R kinase) [nM]
1 | COc1cc(C2c3cc(O)c(O)cc3CC3COC(=O)C32)cc(OC)c1OC (stereo not drawn) [4,5-demethylene-deoxypodophyllotoxin] | 102 | 100 | 99 | 70 | failed to interfere | failed to interfere | inhibited | 73 | 65 | 104 | about 35% | failed to interfere |  |  |  | 
2 | COc1cc([C@@H]2c3cc4c(cc3[C@H](O)[C@H]3COC(=O)[C@H]23)OCO4)cc(OC)c1OC [Podophyllotoxin, podophyllotoxin] | 103 | 102 | 101 | 9 | had only effect on IGF-1R | had only effect on IGF-1R | inhibited | 10 | 12 | 99 |  | had only effect on IGF-1R | had only effect on IGF-1R |  |  | 
3 | COc1cc(C2c3cc4c(cc3C(OC3OC5COC(c6ccccc6)OC5C(O)C3O)C3COC(=O)C23)OCO4)cc(OC)c1OC [podophyllotoxin-4,6-O-benzylidene-β-D-glucopyranoside] |  |  |  |  |  |  |  |  |  |  |  |  |  | completely disappeared |  | 
4 | N#C/C(=C\c1ccc(O)c(O)c1)C(=O)c1ccc(O)c(O)c1 [tyrphostin AG 538] |  |  |  |  |  |  |  |  |  |  |  |  |  |  | blocked | 400
